Test system: NCI-60 cell lines
Type: cell-based, human

Substance | Cell Line with which the peptide (and its tripeptide motif) is associated | Cell Line (NCI-60 cell line the peptide and its motif are associated with) | also measured
SGGGGLG | – | – | Cell Line (NCI-60 cell line the peptide is associated with): SF-268 CNS
WGAGFWM | H460-Lung | – | –
AGSVYSV | – | OVCAR-5 Ovarian | –
NVSRAVG | – | OVCAR-8 Ovarian | –
RGVASRS | H460-Lung | – | –
LGYYGAV | – | – | Cell Line the peptide is associated with (peptide recovered from phage library selection on this NCI-60 cell line): T-47D Breast
EVIGSGI | A549-Lung | – | –
ELGLRVP | – | OVCAR-8 Ovarian | –
LSLRGGL | – | – | Cell Line the peptide is associated with (peptide recovered from phage library selection on this NCI-60 cell line): MDA-MB-231 Breast
AAGRSRI | – | M14 Melanoma | –
LWGLGWL | – | – | Cell Line (NCI-60 cell line the peptide is associated with): HCC-2998-Colon
GGAVLVA | CCRF-CEM Leukemia | – | –
RSSGLGF | Hop-62-Lung | – | –
VWGVGGS | K-562-Leukemia | – | –
GGVRLGG | – | PC3 Prostate | –
RAAGSAG | – | IGROV1 Ovarian | –
EVGGGLT | CCRF-CEM Leukemia | – | –
VEEGRLR | – | – | Cell Line (NCI-60 cell line the peptide is associated with): SW620-Colon
AVFRASR | – | – | Cell Line the peptide is associated with (peptide recovered from phage library selection on this NCI-60 cell line): CAIK-1 Renal
GRLMPGG | – | – | Cell Line the peptide is associated with (peptide recovered from phage library selection on this NCI-60 cell line): ACHN Renal
ERGSPSR | H460-Lung | – | –
RRDAGRM | – | – | Cell Line (NCI-60 cell line the peptide is associated with): SF-295 CNS
GGVLYLE | H226-Lung | – | –

Substance | Cell Line with which the peptide (and its tripeptide motif) is associated | Cell Line (NCI-60 cell line the peptide and its motif are associated with) | also measured
TDGVRAF | – | UACC 257 Melanoma | –
AGGPSSY | – | – | Cell Line the peptide is associated with (peptide recovered from phage library selection on this NCI-60 cell line): UO31 Renal
LVSSGSK | HL-60-Leukemia | – | –
AGSPLAK | H23-Lung | – | –
RHGVRSK | – | – | Cell Line (NCI-60 cell line the peptide is associated with): SF-295 CNS
VGAGRFT | – | – | Cell Line the peptide is associated with (peptide recovered from phage library selection on this NCI-60 cell line): MDA-MB-231 Breast
LRFRRGV | – | PC3 Prostate | –
YDGLVSG | – | – | Cell Line (NCI-60 cell line the peptide is associated with): COLO-205-Colon
GSSRVRW | – | – | Cell Line (NCI-60 cell line the peptide is associated with): HCT-15 Colon
GDRGVRG | – | A498 Renal | Cell Line the peptide is associated with (peptide recovered from phage library selection on this NCI-60 cell line): A498 Renal
YRALAGG | – | – | Cell Line the peptide is associated with (peptide recovered from phage library selection on this NCI-60 cell line): MDA-MB-435-Breast
LGGRLSL | – | – | Cell Line the peptide is associated with (peptide recovered from phage library selection on this NCI-60 cell line): MDA-MB-231 Breast
NGGRVLS | – | – | Cell Line the peptide is associated with (peptide recovered from phage library selection on this NCI-60 cell line): ACHN Renal
GVLLWRP | – | UACC62 Melanoma | –
SITRGGL | – | DU-145 Prostate | –
SGVGGRY | – | UACC 257 Melanoma | –
GTPAVSY | – | – | Cell Line the peptide is associated with (peptide recovered from phage library selection on this NCI-60 cell line): NCI/ADR-RES Breast
DAVRGPS | – | IGROV1 Ovarian | –
QRYHLRS | – | – | Cell Line the peptide is associated with (peptide recovered from phage library selection on this NCI-60 cell line): CAIK-1 Renal
ALPGGGR | – | OVCAR-5 Ovarian | –
HVKNGRV | – | SK-MEL-28 Melanoma | –
VDLRSAF | – | – | Cell Line the peptide is associated with (peptide recovered from phage library selection on this NCI-60 cell line): ACHN Renal
ARLRASR | – | PC3 Prostate | –

Substance | Cell Line with which the peptide (and its tripeptide motif) is associated | Cell Line (NCI-60 cell line the peptide and its motif are associated with) | also measured
SVVLAGS | – | – | Cell Line (NCI-60 cell line the peptide is associated with): LOX-IMVI Melanoma
ASLPVLD | – | M14 Melanoma | –
YGALAGL | – | PC3 Prostate | –
SSRMGLV | SR Leukemia | – | –
LRSGRGS | RPMI-8226-Leukemia | – | Cell Line the peptide is associated with (peptide recovered from phage library selection on this NCI-60 cell line): MDA-MB-435-Breast
VKGSSMR | – | – | Cell Line the peptide is associated with (peptide recovered from phage library selection on this NCI-60 cell line): A498 Renal
MGMSGPS | CCRF-CEM Leukemia | – | –
NGRGSGW | HL-60-Leukemia | – | –
RRGSSRN | SR Leukemia | – | –
WAGLSPS | Hop-92-Lung | – | –
SLRGVRV | – | UACC62 Melanoma | –
FAQRRVS | – | – | Cell Line the peptide is associated with (peptide recovered from phage library selection on this NCI-60 cell line): SN12C Renal
GAYRLVS | CCRF-CEM Leukemia | – | –
HSESAAV | Hop-62-Lung | – | –
VSAASSV | – | – | Cell Line the peptide is associated with (peptide recovered from phage library selection on this NCI-60 cell line): RXF393 Renal
SSGSVDS | H322-Lung | – | –
LIGRASM | – | SK-OV-3-3 Ovarian | –
RALGAAS | – | SK-OV-3-3 Ovarian | –
FGVLFRS | EKVX-Lung | – | –
GRGDRGV | – | SK-MEL-28 Melanoma | –
DWVCRAS | – | – | Cell Line (NCI-60 cell line the peptide is associated with): HT-29 Colon
VGLRDWG | – | – | Cell Line (NCI-60 cell line the peptide is associated with): SW620-Colon
VGAVYFL | H322-Lung | – | –

Substance | Cell Line with which the peptide (and its tripeptide motif) is associated | Cell Line (NCI-60 cell line the peptide and its motif are associated with) | also measured
FRALGGL | – | – | Cell Line (NCI-60 cell line the peptide is associated with): SNB-75 CNS
ELHPRGV | K-562-Leukemia | – | –
MLGRGSV | – | – | Cell Line the peptide is associated with (peptide recovered from phage library selection on this NCI-60 cell line): SN12C Renal
SGVSVEG | Hop-62-Lung | – | –
GGSLKWV | – | SK-MEL-2 Melanoma | –
GSSVSLG | – | – | Cell Line the peptide is associated with (peptide recovered from phage library selection on this NCI-60 cell line): BT-549 Breast
FSNARGY | – | DU-145 Prostate | –
PGFMAGS | – | UACC62 Melanoma | –
RVPTGVR | – | – | Cell Line the peptide is associated with (peptide recovered from phage library selection on this NCI-60 cell line): SN12C Renal
HQAGGVT | – | UACC62 Melanoma | –
LRGSYVL | – | – | Cell Line (NCI-60 cell line the peptide is associated with): SW620-Colon
VRGSVRA | H23-Lung | – | –
AGRPRAT | – | – | Cell Line (NCI-60 cell line the peptide is associated with): HCT-116 Colon
DVWVAVS | – | OVCAR-4 Ovarian | –
MSAFGRL | EKVX-Lung | – | –
GVGGGAG | – | – | Cell Line the peptide is associated with (peptide recovered from phage library selection on this NCI-60 cell line): MDA-MB-435-Breast
SGWFAGS | – | SK-OV-3-3 Ovarian | –
GRYSLRS | RPMI-8226-Leukemia | – | –
RFSGGLQ | – | SK-MEL-28 Melanoma | –
TLGRLSS | – | DU-145 Prostate | –
SGGLHEG | SR Leukemia | – | –
REAERVS | H322-Lung | – | –
TLTAAVF | – | UACC 257 Melanoma | –

Substance | Cell Line with which the peptide (and its tripeptide motif) is associated | Cell Line (NCI-60 cell line the peptide and its motif are associated with) | also measured
LRGSHVA | – | – | Cell Line the peptide is associated with (peptide recovered from phage library selection on this NCI-60 cell line): ACHN Renal
NWDARGR | – | M14 Melanoma | –
PVHSAGG | H460-Lung | – | –
SGVSGLS | EKVX-Lung | – | –
GLVTAPL | – | – | Cell Line (NCI-60 cell line the peptide is associated with): COLO-205-Colon
EAVSRGS | K-562-Leukemia | – | –
GSVVSSW | – | – | Cell Line the peptide is associated with (peptide recovered from phage library selection on this NCI-60 cell line): ACHN Renal
GTGAAVF | – | – | Cell Line the peptide is associated with (peptide recovered from phage library selection on this NCI-60 cell line): RXF393 Renal
RGSVRVL | HL-60-Leukemia | – | –
YRGSSGK | RPMI-8226-Leukemia | – | –
GAVDGSR | RPMI-8226-Leukemia | – | –
SLTRAVR | Hop-92-Lung | – | –
LRYWAAV | – | SK-MEL-2 Melanoma | –
PAVAGST | – | – | Cell Line the peptide is associated with (peptide recovered from phage library selection on this NCI-60 cell line): HS 578 T Breast
NKGGLRQ | – | SK-OV-3-3 Ovarian | –
EAGPRGV | – | – | Cell Line the peptide is associated with (peptide recovered from phage library selection on this NCI-60 cell line): BT-549 Breast
SLGSVGS | EKVX-Lung | – | –
GSGGSVH | Hop-92-Lung | – | –
GVGGLSS | – | – | Cell Line the peptide is associated with (peptide recovered from phage library selection on this NCI-60 cell line): HS 578 T Breast
